In ChEMBL document CHEMBL4651402, “Screening of ~5500 FDA-approved drugs and clinical candidates for anti-SARS-CoV-2 activity” (2021):

System: SARS-CoV-2
Assay: microbe, parasite or virus in culture
Conditions: Severe acute respiratory syndrome coronavirus 2, Vero C1008, 48 h

| SMILES | IC50 | IC50 (read-out: pIC50 (converted)) |
| --- | --- | --- |
| CCCN1CCOC2c3cc(O)ccc3CCC21 (configuration not stated) | > 20 µM | > 20 µM |
| CC(C)CN(C[C@@H](O)[C@H](Cc1ccccc1)NC(=O)O[C@H]1CCOC1)S(=O)(=O)c1ccc(N)cc1 | > 20 µM | > 20 µM |
| CCCCCCCCCCCCOS(=O)(=O)O | > 20 µM | > 20 µM |
| CC(=O)N[C@@H]1[C@@H](O)[C@@H](O)[C@@H](CO)O[C@@H]1O | > 20 µM | > 20 µM |
| CN(C)CC(=O)O | > 20 µM | > 20 µM |
| O=P(O)(O)OC[C@H](O)CO | > 20 µM | > 20 µM |
| COc1ccc(N2CCN(c3cccc(C)c3)CC2)nn1 | > 20 µM | > 20 µM |
| S=C(Nc1ccccc1)Nc1nccs1 | > 20 µM | > 20 µM |
| CCN(CC)C(=O)N[C@@H]1CC2c3cccc4[nH]cc(c34)CC2N(C)C1 (some centres not stated) | > 20 µM | > 20 µM |
| CC(C)OC(=O)[C@H](C)NP(=O)(OC[C@H]1O[C@@H](n2ccc(=O)[nH]c2=O)[C@](C)(F)[C@@H]1O)Oc1ccccc1 (some centres not stated) | > 20 µM | > 20 µM |
| COC(=O)C1=COC(O[C@H]2OC(CO)[C@H](O)C(O)C2O)[C@H]2C1C(=O)C[C@@H]2C (some centres not stated) | > 20 µM | > 20 µM |
| CN(C)CCN(Cc1ccccc1)c1ccccc1 | > 20 µM | > 20 µM |
| CC12C=CC(=O)C=C1CCC1C2C(=O)CC2(C)C1CC[C@]2(O)C(=O)CO (some centres not stated) | > 20 µM | > 20 µM |
| COC(=O)C(N)Cc1ccc(O)c(O)c1 (configuration not stated) | > 20 µM | > 20 µM |
| CC(C(O)(Cn1cncn1)c1ccc(F)cc1F)S(C)(=O)=O (configuration not stated) | > 20 µM | > 20 µM |
| CC(=O)NC1(c2ccccc2)CCN(CC[C@@H](CN(C)C(=O)c2ccccc2)c2ccc(Cl)c(Cl)c2)CC1 | > 20 µM | > 20 µM |
| CC(C)CCCCCCCCCCCCCCC(=O)O | > 20 µM | > 20 µM |
| Oc1ccc2c3c1O[C@H]1[C@@H](O)CC[C@@]4(O)C(C2)N(CC2CCC2)CCC314 (some centres not stated) | > 20 µM | > 20 µM |

| SMILES | IC50 | IC50 (read-out: pIC50 (converted)) |
| --- | --- | --- |
| CC1C(=O)OC2CCN3CC=C(COC(=O)C(C)(O)C1(C)O)C23 (configuration not stated) | > 20 µM | > 20 µM |
| Cc1c(C(=O)N2CCOc3ccc(-c4ccc(N)nc4)cc3C2)ccc(S(C)(=O)=O)c1F | > 20 µM | > 20 µM |
| C[C@H](CN1CCOCC1)C(C(=O)N1CCCC1)(c1ccccc1)c1ccccc1 | > 20 µM | > 20 µM |
| O=C(CN1C(=O)c2ccccc2S1(=O)=O)Nc1ccc(O)cc1 | > 20 µM | > 20 µM |
| NCC1CCC(C(=O)O)CC1 (configuration not stated) | > 20 µM | > 20 µM |
| Cc1ncc[nH]1 | > 20 µM | > 20 µM |
| O=C1CCCC2C3CC(CN12)[C@@H]1CCCCN1C3 (some centres not stated) | > 20 µM | > 20 µM |
| CC12CCC3C4CCC(=O)C=C4CCC3C1CCC2=O (configuration not stated) | > 20 µM | > 20 µM |
| CC(=O)C1CCC2C3CCC4=CC(=O)CCC4C3CCC12C (configuration not stated) | > 20 µM | > 20 µM |
| O=C(O)COC[C@H]1CC[C@H](COC(=O)N(c2ccccc2)c2ccc(Cl)cc2)CC1 | > 20 µM | > 20 µM |
| CCOC(=O)C1=C(CN2CCOCC2)NC(c2nccs2)=NC1c1ccc(F)cc1Br (configuration not stated) | > 20 µM | > 20 µM |
| CCOc1ccccc1O[C@H](c1ccccc1)[C@H]1CNCCO1 | > 20 µM | > 20 µM |
| CN(Cc1cnc2nc(N)nc(N)c2n1)c1ccc(C(=O)NC(CCC(=O)O)C(=O)O)cc1 (configuration not stated) | > 20 µM | > 20 µM |
| NC(=O)CC[C@H](NC(=O)Cc1ccccc1)C(=O)O | > 20 µM | > 20 µM |
| O=C(O)CC(S)C(=O)O (configuration not stated) | > 20 µM | > 20 µM |
| CCO[C@@H]1OC(=O)C[C@@H]1NC(=O)[C@@H]1CCCN2C(=O)CC[C@H](NC(=O)c3nccc4ccccc34)C(=O)N12 | > 20 µM | > 20 µM |
| O=C(OCc1ccccc1)c1ccc(O)cc1 | > 20 µM | > 20 µM |
| C[C@@H]1C\C=C/C=C\C=C/C=C\[C@H](O[C@@H]2O[C@H](C)[C@@H](O)[C@H](N)[C@@H]2O)C[C@@H]2O[C@](O)(C[C@@H](O)C[C@H]3O[C@@H]3/C=C\C(=O)O1)C[C@H](O)[C@H]2C(=O)O | > 20 µM | > 20 µM |
